Target: human dihydroorotate dehydrogenase (HsDHODH) (Homo sapiens, UniProt Q02127)
Assay type: biochemical

Chain of human dihydroorotate dehydrogenase (HsDHODH) (Q02127 whole entry): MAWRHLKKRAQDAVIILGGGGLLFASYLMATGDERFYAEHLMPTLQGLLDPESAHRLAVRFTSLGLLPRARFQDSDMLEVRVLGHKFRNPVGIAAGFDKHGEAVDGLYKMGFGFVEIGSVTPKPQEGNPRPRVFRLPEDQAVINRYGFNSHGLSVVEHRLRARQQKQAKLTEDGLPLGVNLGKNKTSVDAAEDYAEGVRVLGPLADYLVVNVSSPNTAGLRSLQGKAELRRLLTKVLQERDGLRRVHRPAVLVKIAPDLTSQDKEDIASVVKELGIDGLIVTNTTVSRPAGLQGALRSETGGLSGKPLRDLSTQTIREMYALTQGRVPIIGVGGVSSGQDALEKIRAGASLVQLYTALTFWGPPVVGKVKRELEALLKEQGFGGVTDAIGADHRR

- IC50: 121 ± 6.78 µM
Structure (SMILES): O=C(/C=C/c1ccc(O)c(O)c1)OCCc1ccccc1 [CAPE, caffeic acid phenethyl ester]
